Experimental data published in patent US11395857B2, “Radiolabeled melanocortin 1 receptor-specific alpha-melanocyte-stimulating hormone analogues for imaging or therapy” (PROVINCIAL HEALTH SERVICES AUTHORITY, priority 2018, dated 2022).

Test: Biodistribution of 177Lu-labeled αMSH analogues in mice bearing SK-MEL-1 human melanoma
Conditions: male, mouse, total radioactivity; for tissue to tissue ratio at 1 h: 1 h p.i.; for tissue to tissue ratio at 1 h / tissue to tissue ratio at 4 h / tissue to tissue ratio at 24 h / tissue to tissue ratio at 120 h: NRG mice, SK-MEL-1 melanoma; for tissue to tissue ratio at 4 h: 4 h p.i.; for tissue to tissue ratio at 24 h: 24 h p.i.; for tissue to tissue ratio at 120 h: 120 h p.i.
[1] = NRG (NOD.Cg-Rag1tm1Mom I12rgtm1Wjl/SzJ), fat, iv
[2] = NRG (NOD.Cg-Rag1tm1Mom I12rgtm1Wjl/SzJ), seminal glands, iv
[3] = NRG (NOD.Cg-Rag1tm1Mom Il2rgtm1Wjl/SzJ), SK-MEL-1 tumour
[4] = NRG (NOD.Cg-Rag1tm1Mom Il2rgtm1Wjl/SzJ), adrenal glands
[5] = NRG (NOD.Cg-Rag1tm1Mom Il2rgtm1Wjl/SzJ), blood
[6] = NRG (NOD.Cg-Rag1tm1Mom Il2rgtm1Wjl/SzJ), bone
[7] = NRG (NOD.Cg-Rag1tm1Mom Il2rgtm1Wjl/SzJ), brain
[8] = NRG (NOD.Cg-Rag1tm1Mom Il2rgtm1Wjl/SzJ), heart
[9] = NRG (NOD.Cg-Rag1tm1Mom Il2rgtm1Wjl/SzJ), intestine
[10] = NRG (NOD.Cg-Rag1tm1Mom Il2rgtm1Wjl/SzJ), kidneys
[11] = NRG (NOD.Cg-Rag1tm1Mom Il2rgtm1Wjl/SzJ), liver
[12] = NRG (NOD.Cg-Rag1tm1Mom Il2rgtm1Wjl/SzJ), lungs
[13] = NRG (NOD.Cg-Rag1tm1Mom Il2rgtm1Wjl/SzJ), muscle
[14] = NRG (NOD.Cg-Rag1tm1Mom Il2rgtm1Wjl/SzJ), pancreas
[15] = NRG (NOD.Cg-Rag1tm1Mom Il2rgtm1Wjl/SzJ), spleen
[16] = NRG (NOD.Cg-Rag1tm1Mom Il2rgtm1Wjl/SzJ), stomach
[17] = NRG (NOD.Cg-Rag1tm1Mom Il2rgtm1Wjl/SzJ), testes
[18] = NRG (NOD.Cg-Rag1tm1Mom Il2rgtm1Wjl/SzJ), thyroid
[19] = NRG (NOD.Cg-Rag1tm1Mom Il2rgtm1Wjl/SzJ), tumour/blood
[20] = NRG (NOD.Cg-Rag1tm1Mom Il2rgtm1Wjl/SzJ), tumour/kidney
[21] = NRG (NOD.Cg-Rag1tm1Mom Il2rgtm1Wjl/SzJ), tumour/muscle
[22] = NRG (NOD.Cg-Rag1tm1Mom Il2rgtm1Wjl/SzJ), urine

Description: The SK-MEL-1 human melanoma cell line (HTB-67) was obtained commercially from ATCC. SK-MEL-1 cells were cultured in Eagle's Minimum Essential Medium (StemCell Technologies) under the same conditions as described in Example 1. Immunodeficient NOD.Cg-Rag1tm1Mom I12rgtm1Wjl/SzJ (NRG) male mice were obtained from an in-house breeding colony at the BC Cancer Research Centre. For tumor implantation, male NRG mice were anesthetized by inhalation with 2% isoflurane, and 5 million SK-MEL-1 cells were inoculated subcutaneously on the right dorsal flank. Mice were used for imaging or biodistribution studies when the tumors reached 6-8 mm in diameter in 16-20 days.
Biodistribution studies were performed as described in Example 3.

## CCCC[C@H](NC(=O)CN1CCC(NC(=O)[C@H](CCCCNC(=O)CN2CCN(CC(=O)O)CCN(CC(=O)O)CCN(CC(=O)O)CC2)NC(=O)[C@H](CCC(=O)O)NC(=O)CCCc2ccc(I)cc2)CC1)C(=O)N[C@H]1CC(=O)NCCCC[C@@H](C(N)=O)N(C)C(=O)[C@H](Cc2c[nH]c3ccccc23)NC(=O)[C@H](CCCNC(=N)N)N(C)C(=O)[C@@H](Cc2ccccc2)NC(=O)[C@H](Cc2c[nH]cn2)NC1=O [^177Lu-labeled CCZ01118, metal not drawn]
[1]
  tissue uptake at 1 h: 1.18 ± 0.08 %ID/g
  tissue uptake at 4 h: 0.45 ± 0.26 %ID/g
  tissue uptake at 24 h: 0.1 ± 0.05 %ID/g
  tissue uptake at 120 h: 0.08 ± 0.02 %ID/g
[2]
  tissue uptake at 1 h: 0.59 ± 0.08 %ID/g
  tissue uptake at 4 h: 1.53 ± 2.82 %ID/g
  tissue uptake at 24 h: 0.06 ± 0.01 %ID/g
  tissue uptake at 120 h: 0.03 ± 0.01 %ID/g
[3]
  tissue uptake at 1 h: 10.5 ± 3.29 %ID/g
  tissue uptake at 4 h: 14 ± 2.36 %ID/g
  tissue uptake at 24 h: 10.1 ± 2.13 %ID/g
  tissue uptake at 120 h: 4.8 ± 0.26 %ID/g
[4]
  tissue uptake at 1 h: 2.99 ± 2.15 %ID/g
  tissue uptake at 4 h: 1.21 ± 0.59 %ID/g
  tissue uptake at 24 h: 0.27 ± 0.13 %ID/g
  tissue uptake at 120 h: 0.3 ± 0.16 %ID/g
[5]
  tissue uptake at 1 h: 9.63 ± 0.78 %ID/g
  tissue uptake at 4 h: 2.46 ± 0.64 %ID/g
  tissue uptake at 24 h: 0.07 ± 0.03 %ID/g
  tissue uptake at 120 h: 0.02 %ID/g
[6]
  tissue uptake at 1 h: 1.1 ± 0.5 %ID/g
  tissue uptake at 4 h: 0.35 ± 0.08 %ID/g
  tissue uptake at 24 h: 0.15 ± 0.02 %ID/g
  tissue uptake at 120 h: 0.26 ± 0.39 %ID/g
[7]
  tissue uptake at 1 h: 0.17 ± 0.02 %ID/g
  tissue uptake at 4 h: 0.06 ± 0.01 %ID/g
  tissue uptake at 24 h: 0.01 %ID/g
  tissue uptake at 120 h: 0.01 %ID/g
[8]
  tissue uptake at 1 h: 2.5 ± 0.3 %ID/g
  tissue uptake at 4 h: 0.84 ± 0.23 %ID/g
  tissue uptake at 24 h: 0.14 ± 0.04 %ID/g
  tissue uptake at 120 h: 0.08 ± 0.02 %ID/g
[9]
  tissue uptake at 1 h: 1.42 ± 0.22 %ID/g
  tissue uptake at 4 h: 0.79 ± 0.5 %ID/g
  tissue uptake at 24 h: 0.19 ± 0.03 %ID/g
  tissue uptake at 120 h: 0.08 ± 0.01 %ID/g
[10]
  tissue uptake at 1 h: 13.4 ± 2.53 %ID/g
  tissue uptake at 4 h: 12.8 ± 2.29 %ID/g
  tissue uptake at 24 h: 6.48 ± 1.25 %ID/g
  tissue uptake at 120 h: 1.69 ± 0.13 %ID/g
[11]
  tissue uptake at 1 h: 6.91 ± 1.09 %ID/g
  tissue uptake at 4 h: 5.77 ± 1.62 %ID/g
  tissue uptake at 24 h: 4.36 ± 1.11 %ID/g
  tissue uptake at 120 h: 2.42 ± 0.33 %ID/g
[12]
  tissue uptake at 1 h: 6.59 ± 1.06 %ID/g
  tissue uptake at 4 h: 2.5 ± 0.67 %ID/g
  tissue uptake at 24 h: 0.86 ± 0.87 %ID/g
  tissue uptake at 120 h: 0.15 ± 0.12 %ID/g
[13]
  tissue uptake at 1 h: 0.98 ± 0.12 %ID/g
  tissue uptake at 4 h: 0.36 ± 0.11 %ID/g
  tissue uptake at 24 h: 0.05 ± 0.01 %ID/g
  tissue uptake at 120 h: 0.02 ± 0.01 %ID/g
[14]
  tissue uptake at 1 h: 1.4 ± 0.24 %ID/g
  tissue uptake at 4 h: 0.49 ± 0.08 %ID/g
  tissue uptake at 24 h: 0.1 ± 0.02 %ID/g
  tissue uptake at 120 h: 0.05 %ID/g
[15]
  tissue uptake at 1 h: 3.06 ± 0.53 %ID/g
  tissue uptake at 4 h: 1.45 ± 0.33 %ID/g
  tissue uptake at 24 h: 1.2 ± 0.56 %ID/g
  tissue uptake at 120 h: 0.98 ± 0.29 %ID/g
[16]
  tissue uptake at 1 h: 0.56 ± 0.1 %ID/g
  tissue uptake at 4 h: 0.44 ± 0.25 %ID/g
  tissue uptake at 24 h: 0.36 ± 0.2 %ID/g
  tissue uptake at 120 h: 0.13 ± 0.05 %ID/g
[17]
  tissue uptake at 1 h: 1.58 ± 0.32 %ID/g
  tissue uptake at 4 h: 0.84 ± 0.2 %ID/g
  tissue uptake at 24 h: 0.22 ± 0.04 %ID/g
  tissue uptake at 120 h: 0.16 ± 0.04 %ID/g
[18]
  tissue uptake at 1 h: 4.03 ± 0.45 %ID/g
  tissue uptake at 4 h: 3.11 ± 0.46 %ID/g
  tissue uptake at 24 h: 2.49 ± 0.64 %ID/g
  tissue uptake at 120 h: 1.83 ± 0.21 %ID/g
[19]
  tissue to tissue ratio at 1 h: 1.08 ± 0.3
  tissue to tissue ratio at 4 h: 5.84 ± 0.96
  tissue to tissue ratio at 24 h: 165 ± 50.1
  tissue to tissue ratio at 120 h: 246 ± 28.6
[20]
  tissue to tissue ratio at 1 h: 0.77 ± 0.12
  tissue to tissue ratio at 4 h: 1.1 ± 0.08
  tissue to tissue ratio at 24 h: 1.55 ± 0.1
  tissue to tissue ratio at 120 h: 2.85 ± 0.22
[21]
  tissue to tissue ratio at 1 h: 10.6 ± 2.98
  tissue to tissue ratio at 4 h: 41.5 ± 9.8
  tissue to tissue ratio at 24 h: 201 ± 10.4
  tissue to tissue ratio at 120 h: 269 ± 79.1
[22]
  excreta dose per gram or mL at 1 h: 376 ± 154 %ID/g
  excreta dose per gram or mL at 4 h: 154 ± 39.2 %ID/g
  excreta dose per gram or mL at 24 h: 5.39 ± 1.23 %ID/g
  excreta dose per gram or mL at 120 h: 1.12 ± 0.38 %ID/g
